The source made the active and inactive calls. Rule as the data show it, for most assays here: actives have a measured EC50 and inactives only a lower limit.

The test system of one test is Streptococcus. In words: GAS UMAA2166 growth inhibition – luminescence, BacTiterGlo, counter-screen for streptokinase expression inhibitor project, dose response (AID 1915).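 Also: potency for reduction of bacterial viability or growth.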 Format: functional, organism-based. On the technique in general: The purpose of a counterscreen is to sort out artefacts and off-target activity.
The test system of test [1] is Streptococcus sp. 'group A'. In words: Streptococcus pyogenes SK(-)GAS viability under kanamycin – luminescence, BacTiterGlo, confirmation, counter-screen for streptokinase expression inhibitor project, dose response (AID 1900). In kind it is functional, organism-based.
The next test deals with T1, Streptokinase A (Streptococcus pyogenes serotype M1, UniProt P10520).
T1 sequence (P10520 whole entry): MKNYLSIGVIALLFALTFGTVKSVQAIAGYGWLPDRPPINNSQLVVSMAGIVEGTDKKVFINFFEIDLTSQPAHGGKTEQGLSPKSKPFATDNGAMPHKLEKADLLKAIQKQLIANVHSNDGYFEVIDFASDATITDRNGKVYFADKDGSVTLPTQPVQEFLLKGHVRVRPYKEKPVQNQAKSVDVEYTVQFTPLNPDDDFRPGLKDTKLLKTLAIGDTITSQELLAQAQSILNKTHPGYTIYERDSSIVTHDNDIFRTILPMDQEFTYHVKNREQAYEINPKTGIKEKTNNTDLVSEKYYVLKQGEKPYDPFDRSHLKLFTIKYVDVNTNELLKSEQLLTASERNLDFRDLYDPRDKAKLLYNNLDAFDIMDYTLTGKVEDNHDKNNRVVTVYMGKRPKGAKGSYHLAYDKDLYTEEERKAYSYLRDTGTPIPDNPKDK
In words: viability-normalized secreted streptokinase activity reduction – plasminogen activation absorbance, OD405, dose response (AID 1914).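 Also: secreted streptokinase activity via plasminogen activation per viability signal from cell pellet.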 Format: functional, Streptococcus pyogenes M1 GAS.

A further test has as its system H4. In words: Luminescence Cell-Based Dose Response HTS to Identify Activators of 5'UTR Stem-Loop Driven Prion Protein mRNA Translation in H4 Neuroglioblastoma Cells. [Related pubchem assays: 1829 (Project Summary), 1814 (Primary HTS)]. Format: functional. The conditions noted are these: Homo sapiens.
Test [2] in a line: Luminescence Cell-Based Dose Response HTS to Identify Activators of Luciferase Translation or Activity in H4 […] Cells. [Related pubchem assays: 1829 (Project Summary), 1814 (Primary HTS)]. Format: functional.
For test [3], the target named is T2, Heat shock factor protein 1 (Mus musculus, UniProt P38532).
T2 sequence (P38532 whole entry): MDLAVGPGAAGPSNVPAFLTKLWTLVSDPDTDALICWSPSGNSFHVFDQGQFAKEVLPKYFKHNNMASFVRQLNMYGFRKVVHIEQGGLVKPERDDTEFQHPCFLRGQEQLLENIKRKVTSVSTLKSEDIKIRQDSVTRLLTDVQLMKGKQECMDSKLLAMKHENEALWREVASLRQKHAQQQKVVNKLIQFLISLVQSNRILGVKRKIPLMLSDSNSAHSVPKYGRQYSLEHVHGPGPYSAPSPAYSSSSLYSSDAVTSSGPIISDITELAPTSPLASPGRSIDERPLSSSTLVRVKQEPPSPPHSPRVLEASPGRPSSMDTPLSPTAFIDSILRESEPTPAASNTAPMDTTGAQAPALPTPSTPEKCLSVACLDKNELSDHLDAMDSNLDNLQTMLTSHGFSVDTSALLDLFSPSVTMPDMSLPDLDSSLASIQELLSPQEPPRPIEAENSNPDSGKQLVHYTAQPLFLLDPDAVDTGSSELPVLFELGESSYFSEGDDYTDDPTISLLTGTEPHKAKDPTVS
In words: decrease of HSF1-responsive luciferase luminescence – cell-based, NIH3T3, dose retest, confirmation (AID 2382).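 Also: NIH3T3 fibroblasts with HSF1-driven luciferase reporter stressed by proteasome inhibitor MG132; luminescence from HSF1-driven luciferase expression after 8 hours of MG132 stress.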 Format: functional.

In another test the target is Cytochrome P450 3A4 (Homo sapiens, UniProt P08684).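 Also: CYP3A4 tested as one member of a cytochrome P450 panel screen.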
Sequence of Cytochrome P450 3A4 (P08684 whole entry): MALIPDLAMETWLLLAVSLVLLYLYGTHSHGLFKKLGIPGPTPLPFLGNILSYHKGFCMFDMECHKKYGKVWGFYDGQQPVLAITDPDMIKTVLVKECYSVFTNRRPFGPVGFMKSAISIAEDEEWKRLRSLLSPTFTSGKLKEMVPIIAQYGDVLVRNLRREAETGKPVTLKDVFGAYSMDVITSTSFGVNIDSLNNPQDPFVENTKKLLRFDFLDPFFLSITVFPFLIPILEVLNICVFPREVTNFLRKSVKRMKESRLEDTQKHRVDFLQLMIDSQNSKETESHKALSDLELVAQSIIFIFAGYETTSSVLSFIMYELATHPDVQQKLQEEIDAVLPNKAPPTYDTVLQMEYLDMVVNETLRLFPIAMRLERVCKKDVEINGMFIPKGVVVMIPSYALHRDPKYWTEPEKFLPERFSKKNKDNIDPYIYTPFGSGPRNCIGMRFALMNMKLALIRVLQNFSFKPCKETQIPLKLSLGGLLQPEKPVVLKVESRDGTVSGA
A further test addresses Cytochrome P450 2D6 (Homo sapiens, UniProt P10635).

Sequence of Cytochrome P450 2D6 (P10635 whole entry): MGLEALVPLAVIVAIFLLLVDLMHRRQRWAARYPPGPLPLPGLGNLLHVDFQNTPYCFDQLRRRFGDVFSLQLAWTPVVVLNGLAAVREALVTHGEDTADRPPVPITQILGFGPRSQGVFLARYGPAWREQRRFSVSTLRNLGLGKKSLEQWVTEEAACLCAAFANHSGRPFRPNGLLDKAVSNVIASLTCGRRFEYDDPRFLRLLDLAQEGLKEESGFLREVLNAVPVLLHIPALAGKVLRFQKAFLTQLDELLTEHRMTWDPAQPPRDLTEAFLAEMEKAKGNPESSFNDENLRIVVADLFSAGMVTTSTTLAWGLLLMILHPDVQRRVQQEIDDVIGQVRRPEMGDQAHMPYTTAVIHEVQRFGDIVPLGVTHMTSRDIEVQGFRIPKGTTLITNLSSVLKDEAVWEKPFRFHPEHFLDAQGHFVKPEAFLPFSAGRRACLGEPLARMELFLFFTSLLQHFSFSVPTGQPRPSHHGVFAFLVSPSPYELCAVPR

What is called EC50 is the concentration at which the effect is half-maximal. Consider `CCOC(=O)c1cccc(NC(=S)N2CCN(c3ncc4c(=O)c(C(=O)O)cn(CC)c4n3)CC2)c1`, for which the concentration giving a half-maximal response (EC50) in the test on Streptococcus was 29.9 µM (active); in test [1] it was 5.98 µM (active); on Streptokinase A, > 150 µM (not active).

Regarding `Clc1ccc2[nH]c(-c3ccc(Cl)nc3)nc2c1`, the EC50 in the test with H4 was > 120 µM (not active); in test [2] it was 22.3 µM (active).

As to `COc1ccc(CCNCC(O)Cn2ccc3ccccc32)cc1OC` (centres undefined), the EC50 in test [3] is > 100 µM (not active).

`COc1ccc(/C(C)=N/NC(=O)CNC(=O)/C=C\c2ccccc2)c(OC)c1`: the concentration for a half-maximal effect (EC50) in test [3] is > 195 µM (not active).

In the case of `CCN(c1ccc(OC)cc1)S(=O)(=O)c1nnc(NC(=O)c2ccccc2Cl)s1`, the values for the EC50 (in the test with Streptococcus; in test [1]; at Streptokinase A) were 99.3 µM (active), 9.51 µM (active) and 5.58 µM (active), respectively.

`Cc1ccc(Cn2c(=O)n(Cc3ccco3)c(=O)c3ccccc32)cc1`: the concentration giving a half-maximal response (EC50) with Streptococcus was > 150 µM (not active); in test [1], 21.1 µM (active); on Streptokinase A, > 150 µM (not active).

On to `Cc1ccc(Cn2c(Sc3ncccn3)nc3c2c(=O)[nH]c(=O)n3C)cc1`, for which, in test [3], the EC50 is on record as > 195 µM (not active).

Take `CNC(=O)c1ccsc1NC(=O)c1ccc(Cl)s1`: in test [3], the EC50 is given as > 195 µM (not active).

`CC(C)(C)c1csc(NC2=NS(=O)(=O)c3ccccc32)n1`: the EC50 in the test with H4 is > 120 µM (not active).

Regarding `Cc1onc(-c2ccccc2Cl)c1C(=O)Nc1ccc(OCC(=O)N2CCOCC2)cc1`, the EC50 in test [3] was > 195 µM (not active).

Take `O=C(NC1CCCCC1)C(=S)NC1CCCCC1`: in the test on H4, the 50% effective concentration (EC50) was 2.43 µM (active).

On to `O=C(OC(C(=O)NC1CCCC1)c1ccncc1)C1=Cc2ccccc2OC1` (centres undefined), for which, in test [3], the EC50 is listed as > 195 µM (not active).

For the compound `CN(CC(=O)Nc1ccc(F)cc1)C(=O)COC(=O)c1cc(S(=O)(=O)N(C)C)ccc1N1CCCC1`, the EC50 in test [3] was > 195 µM (not active).

On to `COc1ccc(-c2cc(C3CCN(c4ncccc4[N+](=O)[O-])CC3)[nH]n2)cc1`, for which the figures for the concentration for a half-maximal effect (EC50) (in the test with Streptococcus; in test [1]; on Streptokinase A) were 13 µM (active), 4.96 µM (active) and > 150 µM (not active), respectively.

With `Cc1cc(=O)n2nc(-c3ccc(C(F)(F)F)cc3)sc2n1`, the EC50 was 8.75 µM (active) with H4, > 195 µM (not active) in test [3] and > 120 µM (not active) in test [2].

Regarding `CCN(CC(=O)Nc1ccccc1C(F)(F)F)C(=O)c1cc(-c2ccccc2)nn1-c1ccccc1`, the EC50 in the test with Streptococcus is > 150 µM (not active); in test [1], 19.9 µM (active); on Streptokinase A, 23.9 µM (active).

As for `COc1cccc(-n2nc(-c3ccnn3-c3cccc(Cl)c3)c(=O)n(C)c2=O)c1`, in test [3], the EC50 is listed as > 195 µM (not active).

In the case of `COCCn1c(N)c(Sc2ccccc2[N+](=O)[O-])c(=O)[nH]c1=O`, in test [3], the concentration for a half-maximal effect (EC50) is recorded as > 195 µM (not active).

For `O=C(CN1C(=O)NC(Cc2ccccc2)C1=O)Nc1ccc(OC(F)F)cc1` (centres undefined), in test [3], the EC50 is > 195 µM (not active).

Turning to `O=C(c1cc(Br)c[nH]1)N1CCSCC1`, the concentration for a half-maximal effect (EC50) in test [3] is on record as > 195 µM (not active).

On to `Cc1cc(C)c2c(n1)sc1c(O)nc(SCc3ccccc3)nc12`, for which, in test [3], the EC50 is recorded as > 195 µM (not active).

For the compound `CN1CCN(S(=O)(=O)c2ccc(Oc3ccc(F)c(Cl)c3)nc2)CC1`, the EC50 in test [3] was > 195 µM (not active).

On to `C=CCSc1nc(-c2ccccc2)c2cc(Cl)ccc2n1`, for which the concentration for a half-maximal effect (EC50) with Streptococcus was 46.4 µM (active); in test [1], 15 µM (active); at Streptokinase A, 29.4 µM (active).

What is called AC50 is the concentration giving half of the maximal activity seen. On to `O=C(Nc1ncc(Cc2cccc(Cl)c2)s1)c1cccs1`, for which the half-maximal activity concentration (AC50) at Cytochrome P450 3A4 was 15.8 µM (inconclusive); at Cytochrome P450 2D6 it was 7.08 µM (inconclusive). The figures for the half-maximal effective concentration (EC50) (in the test with Streptococcus; in test [1]; at Streptokinase A) were 7.17 µM (active), 3.67 µM (active) and > 150 µM (not active), respectively.

Take `CCCn1c(N2CCN(CC(=O)NCc3cccs3)CC2)nc2ccccc21`: the EC50 in test [3] is listed as > 195 µM (not active).

With `COc1ccc(C2/C(=C(\O)c3ccccc3)C(C)=Nc3nc4ccccc4n32)c(OC)c1` (centres undefined), the EC50 in the test on Streptococcus was 37.3 µM (active); in test [1], 14.5 µM (active); at Streptokinase A it was > 150 µM (not active).

Take `COc1ccc(CCNCc2ccsc2)cc1OC`: the EC50 in test [3] is given as > 195 µM (not active).

On to `CCn1c(SCC(=O)N2CC(C)OC(C)C2)nc2c3ccccc3nc-2c1O` (centres undefined), for which the concentration for a half-maximal effect (EC50) (with Streptococcus; in test [1]; on Streptokinase A) was > 150 µM (not active) in each case.

With `CCCCOc1ccc(/N=C/c2ccc[nH]2)cc1`, the EC50 in test [3] is 33 µM (active).

In the case of `COc1ccc(C(=O)CSc2nnc(CNC(=O)c3ccc(S(=O)(=O)N(C)C)cc3)o2)cc1`, the EC50 (with Streptococcus; in test [1]; on Streptokinase A) was > 150 µM (not active) in each case.

On to `O=C(CSc1nnc(CNC(=O)c2ccc(F)cc2)o1)NCc1ccccc1`, for which the EC50 (in the test on Streptococcus; in test [1]; on Streptokinase A) was > 150 µM (not active) each time.

Turning to `CCOc1ccc(N(CC(=O)NN=C2CCCC2)S(C)(=O)=O)cc1`, the 50% effective concentration (EC50) in test [3] was > 195 µM (not active).

For the origin of these results see ChEMBL document CHEMBL1201862, “PubChem BioAssay data set” (2004).
